Columns and labels:
[1] = Primary crystal/particle size by image analysis; format: physicochemical; conditions: Example 8: 15% (w/w) glycine 14 mL/min, ethanol 190 mL/min, anhydrous ethanol quench
Procedure: The same procedure as in Example 7 was used, except the feed rate of the 15% (w/w) aqueous glycine solution was 14 mL/min and the feed rate of the anhydrous ethanol antisolvent was 190 mL/min. A quenching solution of anhydrous ethanol (>99%) was used.
Salicylic acid […] was dissolved in anhydrous ethanol (>99%) at a concentration of 24.8% (w/w). This solution was fed to the same apparatus as configured in Example 1. Water was co-fed as the antisolvent.

[2] = Crystal size of rotor-stator exit stream observed under videomicroscope

NCC(=O)O [glycine, Glycine]
mean size of primary crystals [1]: 4.4 μm
mean size of crystals ([2]; Example 1: 5% (w/w) aqueous glycine 190 mL/min, ethanol 190 mL/min, 10,000 rpm, quench 50% water 50% ethanol): 25 μm
mean size of crystals ([2]; Example 3: as Example 1, rotor-stator speed 5,000 rpm): 40 μm
mean size of crystals ([2]; Example 4: as Example 1, 15% (w/w) glycine solution): 40 μm
mean size of crystals ([2]; Example 5: as Example 1, 15% (w/w) glycine, 5,000 rpm): 70 μm
mean length of crystals ([2]; Example 6: as Example 1, 15% (w/w) glycine, 0 rpm): 300 μm
mean size of crystals ([2]; Example 7: 15% (w/w) glycine 21 mL/min, ethanol 190 mL/min): 6 μm
